According to ChEMBL document CHEMBL5723582, “Data for DCP probe T-10430” (2024):

Columns and labels:
Conditions in all cases: Compound concentration 1.0 uM
[1] = target: Neurotensin receptor type 2 (Homo sapiens) (UniProt O95665); assay: RLU of NTSR2 at 1.0 µM in the […] PRESTO-Tango GPCRome screen
[2] = target: C-X-C chemokine receptor type 5 (Homo sapiens) (UniProt P32302); assay: RLU of CXCR5 at 1.0 µM in the […] PRESTO-Tango GPCRome screen
[3] = target: G-protein coupled receptor 182 (Homo sapiens) (UniProt O15218); assay: RLU of GPR182 at 1.0 µM in the […] PRESTO-Tango GPCRome screen
Sequence of G-protein coupled receptor 182 (Homo sapiens) (O15218 whole entry): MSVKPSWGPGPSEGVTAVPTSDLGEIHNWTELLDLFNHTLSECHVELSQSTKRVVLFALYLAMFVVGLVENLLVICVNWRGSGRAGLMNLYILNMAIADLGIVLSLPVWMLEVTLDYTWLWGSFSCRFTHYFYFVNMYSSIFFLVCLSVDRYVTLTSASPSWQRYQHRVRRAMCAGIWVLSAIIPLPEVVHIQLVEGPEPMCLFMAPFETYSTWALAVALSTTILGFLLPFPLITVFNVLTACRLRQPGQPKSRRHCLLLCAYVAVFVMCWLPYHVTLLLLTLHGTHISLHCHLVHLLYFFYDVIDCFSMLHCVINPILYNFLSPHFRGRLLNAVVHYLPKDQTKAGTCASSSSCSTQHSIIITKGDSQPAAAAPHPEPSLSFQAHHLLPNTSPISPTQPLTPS

[4] = target: Proto-oncogene Mas (Homo sapiens) (UniProt P04201); assay: RLU of MAS1 at 1.0 µM in the […] PRESTO-Tango GPCRome screen
[5] = target: Alpha-2B adrenergic receptor (Homo sapiens) (UniProt P18089); assay: RLU of ADRA2B at 1.0 µM in the […] PRESTO-Tango GPCRome screen
[6] = target: Proteinase-activated receptor 3 (Homo sapiens) (UniProt O00254); assay: RLU of F2RL2 at 1.0 µM in the […] PRESTO-Tango GPCRome screen
Sequence of Proteinase-activated receptor 3 (Homo sapiens) (O00254 whole entry): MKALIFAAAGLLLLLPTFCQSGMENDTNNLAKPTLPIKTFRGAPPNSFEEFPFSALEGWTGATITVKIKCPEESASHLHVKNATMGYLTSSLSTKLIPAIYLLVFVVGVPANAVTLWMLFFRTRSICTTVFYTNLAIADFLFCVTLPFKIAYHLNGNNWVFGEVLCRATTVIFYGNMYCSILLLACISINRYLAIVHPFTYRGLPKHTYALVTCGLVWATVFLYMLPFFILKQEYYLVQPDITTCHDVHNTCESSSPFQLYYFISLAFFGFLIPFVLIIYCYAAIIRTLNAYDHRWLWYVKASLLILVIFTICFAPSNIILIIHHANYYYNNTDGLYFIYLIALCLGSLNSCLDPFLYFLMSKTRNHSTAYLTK

[7] = target: Chemerin-like receptor 2 (Homo sapiens) (UniProt P46091); assay: RLU of GPR1 at 1.0 µM in the […] PRESTO-Tango GPCRome screen
[8] = target: G-protein coupled receptor family C group 5 member C (Homo sapiens) (UniProt Q9NQ84); assay: RLU of GPRC5C at 1.0 µM in the […] PRESTO-Tango GPCRome screen
[9] = target: Substance-P receptor (Homo sapiens) (UniProt P25103); assay: RLU of TACR1 at 1.0 µM in the […] PRESTO-Tango GPCRome screen
Sequence of Substance-P receptor (Homo sapiens) (P25103 whole entry): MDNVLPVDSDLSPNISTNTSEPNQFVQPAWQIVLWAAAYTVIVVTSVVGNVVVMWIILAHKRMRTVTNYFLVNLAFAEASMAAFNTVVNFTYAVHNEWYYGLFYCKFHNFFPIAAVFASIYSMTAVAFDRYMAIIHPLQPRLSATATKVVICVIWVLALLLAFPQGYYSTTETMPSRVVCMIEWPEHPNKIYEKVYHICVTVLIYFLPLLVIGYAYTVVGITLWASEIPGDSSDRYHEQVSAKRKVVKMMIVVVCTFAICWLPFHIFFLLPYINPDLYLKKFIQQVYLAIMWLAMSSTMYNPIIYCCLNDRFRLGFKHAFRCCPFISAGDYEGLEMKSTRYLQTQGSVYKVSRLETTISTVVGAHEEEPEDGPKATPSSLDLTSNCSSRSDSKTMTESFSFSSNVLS

[10] = target: Lysophosphatidic acid receptor 1 (Homo sapiens) (UniProt Q92633); assay: RLU of LPAR1 at 1.0 µM in the […] PRESTO-Tango GPCRome screen
Sequence of Lysophosphatidic acid receptor 1 (Homo sapiens) (Q92633 whole entry): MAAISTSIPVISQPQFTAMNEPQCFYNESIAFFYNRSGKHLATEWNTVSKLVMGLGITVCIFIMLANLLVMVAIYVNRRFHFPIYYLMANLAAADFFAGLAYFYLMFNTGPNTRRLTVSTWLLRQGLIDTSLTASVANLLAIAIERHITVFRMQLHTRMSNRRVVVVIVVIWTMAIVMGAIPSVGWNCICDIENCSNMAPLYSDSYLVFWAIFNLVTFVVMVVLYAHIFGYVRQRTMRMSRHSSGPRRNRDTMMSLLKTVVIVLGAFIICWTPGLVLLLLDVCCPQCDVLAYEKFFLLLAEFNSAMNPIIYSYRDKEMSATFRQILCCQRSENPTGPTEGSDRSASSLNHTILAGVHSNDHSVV

[11] = target: Putative P2Y purinoceptor 10 (Homo sapiens) (UniProt O00398); assay: RLU of P2RY10 at 1.0 µM in the […] PRESTO-Tango GPCRome screen
[12] = target: Free fatty acid receptor 2 (Homo sapiens) (UniProt O15552); assay: RLU of FFA2 (GPR43) at 1.0 µM in the […] PRESTO-Tango GPCRome screen
[13] = target: Leukotriene B4 receptor 1 (Homo sapiens, UniProt Q15722); assay: RLU of LTB4R at 1.0 µM in the […] PRESTO-Tango GPCRome screen
[14] = target: KiSS-1 receptor (Homo sapiens) (UniProt Q969F8); assay: RLU of KISSPEPTIN at 1.0 µM in the […] PRESTO-Tango GPCRome screen
[15] = target: Bombesin receptor subtype-3 (Homo sapiens) (UniProt P32247); assay: RLU of BB3 at 1.0 µM in the […] PRESTO-Tango GPCRome screen
[16] = target: C-C chemokine receptor type 5 (Homo sapiens) (UniProt P51681); assay: RLU of CCR5 at 1.0 µM in the […] PRESTO-Tango GPCRome screen
Sequence of C-C chemokine receptor type 5 (Homo sapiens) (P51681 whole entry, looked up): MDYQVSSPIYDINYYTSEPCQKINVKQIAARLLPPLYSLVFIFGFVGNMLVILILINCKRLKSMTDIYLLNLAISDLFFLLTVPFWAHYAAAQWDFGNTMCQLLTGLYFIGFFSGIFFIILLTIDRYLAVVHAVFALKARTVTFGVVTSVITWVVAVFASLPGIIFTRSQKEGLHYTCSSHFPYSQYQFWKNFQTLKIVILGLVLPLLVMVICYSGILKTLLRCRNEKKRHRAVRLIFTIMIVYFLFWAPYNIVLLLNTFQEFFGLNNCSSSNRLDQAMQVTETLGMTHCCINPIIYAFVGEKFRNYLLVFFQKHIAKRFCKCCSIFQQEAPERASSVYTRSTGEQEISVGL

[17] = target: Mu-type opioid receptor (Homo sapiens) (UniProt P35372); assay: RLU of OPRM1 at 1.0 µM in the […] PRESTO-Tango GPCRome screen
Sequence of Mu-type opioid receptor (Homo sapiens) (P35372 whole entry): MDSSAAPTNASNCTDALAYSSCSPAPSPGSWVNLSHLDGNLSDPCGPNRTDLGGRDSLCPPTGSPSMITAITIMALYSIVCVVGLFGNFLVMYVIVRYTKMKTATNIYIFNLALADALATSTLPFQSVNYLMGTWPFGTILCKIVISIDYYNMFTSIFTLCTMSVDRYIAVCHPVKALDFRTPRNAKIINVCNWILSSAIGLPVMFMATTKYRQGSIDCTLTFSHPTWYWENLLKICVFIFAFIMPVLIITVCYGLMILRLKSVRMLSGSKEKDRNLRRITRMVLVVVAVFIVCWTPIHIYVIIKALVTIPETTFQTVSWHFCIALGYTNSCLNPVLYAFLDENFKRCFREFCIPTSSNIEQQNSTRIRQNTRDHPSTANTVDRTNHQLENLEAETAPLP

[18] = target: Probable G-protein coupled receptor 174 (Homo sapiens) (UniProt Q9BXC1); assay: RLU of GPR174 at 1.0 µM in the […] PRESTO-Tango GPCRome screen
[19] = target: C-X-C chemokine receptor type 2 (Homo sapiens) (UniProt P25025); assay: RLU of CXCR2 at 1.0 µM in the […] PRESTO-Tango GPCRome screen
Sequence of C-X-C chemokine receptor type 2 (Homo sapiens) (P25025 whole entry): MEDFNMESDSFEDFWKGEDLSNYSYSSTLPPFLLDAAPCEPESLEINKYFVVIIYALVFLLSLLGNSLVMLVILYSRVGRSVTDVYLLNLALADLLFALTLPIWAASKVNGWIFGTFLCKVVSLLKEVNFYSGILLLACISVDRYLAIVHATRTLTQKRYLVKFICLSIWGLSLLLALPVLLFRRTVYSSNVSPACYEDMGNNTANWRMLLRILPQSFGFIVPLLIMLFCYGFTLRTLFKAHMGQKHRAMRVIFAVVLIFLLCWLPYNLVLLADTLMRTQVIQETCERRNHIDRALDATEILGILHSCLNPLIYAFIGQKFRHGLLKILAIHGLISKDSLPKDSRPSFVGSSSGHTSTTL

[20] = target: Melatonin receptor type 1B (Homo sapiens) (UniProt P49286); assay: RLU of MTNR1B at 1.0 µM in the […] PRESTO-Tango GPCRome screen
[21] = target: P2Y purinoceptor 2 (Homo sapiens) (UniProt P41231); assay: RLU of P2RY2 at 1.0 µM in the […] PRESTO-Tango GPCRome screen
Sequence of P2Y purinoceptor 2 (Homo sapiens) (P41231 whole entry): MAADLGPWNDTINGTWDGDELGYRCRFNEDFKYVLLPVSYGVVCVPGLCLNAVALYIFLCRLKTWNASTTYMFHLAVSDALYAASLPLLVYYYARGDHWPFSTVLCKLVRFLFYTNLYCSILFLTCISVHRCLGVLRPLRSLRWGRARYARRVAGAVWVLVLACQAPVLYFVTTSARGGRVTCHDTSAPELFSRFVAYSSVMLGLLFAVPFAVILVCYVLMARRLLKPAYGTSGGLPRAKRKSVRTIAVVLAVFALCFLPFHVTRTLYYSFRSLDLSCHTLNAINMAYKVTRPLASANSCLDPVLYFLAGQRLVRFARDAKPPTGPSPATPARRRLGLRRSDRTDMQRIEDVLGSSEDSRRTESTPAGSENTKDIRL

[22] = target: C-C chemokine receptor type 4 (Homo sapiens) (UniProt P51679); assay: RLU of CCR4 at 1.0 µM in the […] PRESTO-Tango GPCRome screen
Sequence of C-C chemokine receptor type 4 (Homo sapiens) (P51679 whole entry): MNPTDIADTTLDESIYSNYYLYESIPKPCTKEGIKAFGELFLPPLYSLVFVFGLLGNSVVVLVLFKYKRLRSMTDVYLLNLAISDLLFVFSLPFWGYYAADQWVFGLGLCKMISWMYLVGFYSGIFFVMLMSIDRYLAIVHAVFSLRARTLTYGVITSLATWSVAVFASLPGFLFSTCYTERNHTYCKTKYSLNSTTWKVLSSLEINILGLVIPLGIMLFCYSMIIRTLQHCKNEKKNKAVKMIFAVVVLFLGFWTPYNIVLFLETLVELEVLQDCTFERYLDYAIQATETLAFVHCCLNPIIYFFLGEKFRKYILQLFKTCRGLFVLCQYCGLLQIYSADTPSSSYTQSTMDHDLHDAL

[23] = target: Probable G-protein coupled receptor 132 (Homo sapiens) (UniProt Q9UNW8); assay: RLU of G2A at 1.0 µM in the […] PRESTO-Tango GPCRome screen
Sequence of Probable G-protein coupled receptor 132 (Homo sapiens) (Q9UNW8 whole entry): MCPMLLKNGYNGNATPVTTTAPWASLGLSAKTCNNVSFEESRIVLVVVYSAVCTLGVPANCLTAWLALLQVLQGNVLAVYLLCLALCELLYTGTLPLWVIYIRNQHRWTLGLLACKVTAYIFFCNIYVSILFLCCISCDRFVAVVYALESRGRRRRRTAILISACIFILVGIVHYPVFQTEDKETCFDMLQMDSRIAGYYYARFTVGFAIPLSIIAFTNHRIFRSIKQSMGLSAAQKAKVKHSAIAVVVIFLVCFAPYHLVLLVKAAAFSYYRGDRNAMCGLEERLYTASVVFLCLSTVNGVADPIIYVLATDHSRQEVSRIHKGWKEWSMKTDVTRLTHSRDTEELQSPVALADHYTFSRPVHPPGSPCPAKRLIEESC

[24] = target: Prostaglandin D2 receptor (Homo sapiens) (UniProt Q13258); assay: RLU of PTGDR at 1.0 µM in the […] PRESTO-Tango GPCRome screen
[25] = target: Galanin receptor type 1 (Homo sapiens) (UniProt P47211); assay: RLU of GAL1 at 1.0 µM in the […] PRESTO-Tango GPCRome screen
[26] = target: Muscarinic acetylcholine receptor M1 (Homo sapiens) (UniProt P11229); assay: RLU of CHRM1 at 1.0 µM in the […] PRESTO-Tango GPCRome screen
Sequence of Muscarinic acetylcholine receptor M1 (Homo sapiens) (P11229 whole entry): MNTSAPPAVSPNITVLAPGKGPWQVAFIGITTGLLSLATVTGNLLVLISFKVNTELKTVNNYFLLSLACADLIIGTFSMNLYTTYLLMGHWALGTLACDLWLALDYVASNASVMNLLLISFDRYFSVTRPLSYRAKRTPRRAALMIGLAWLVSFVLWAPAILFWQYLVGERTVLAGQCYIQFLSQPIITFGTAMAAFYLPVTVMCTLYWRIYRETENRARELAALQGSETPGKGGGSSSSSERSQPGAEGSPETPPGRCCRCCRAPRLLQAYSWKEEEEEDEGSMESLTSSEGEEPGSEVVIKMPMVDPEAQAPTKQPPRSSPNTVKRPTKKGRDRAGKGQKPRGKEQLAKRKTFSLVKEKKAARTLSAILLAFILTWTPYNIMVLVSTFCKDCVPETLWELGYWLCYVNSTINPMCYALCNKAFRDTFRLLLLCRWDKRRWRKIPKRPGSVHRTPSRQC

[27] = target: G protein-coupled receptor 88 (Homo sapiens) (UniProt Q9GZN0); assay: RLU of GPR88 at 1.0 µM in the […] PRESTO-Tango GPCRome screen
[28] = target: Trace amine-associated receptor 5 (Homo sapiens) (UniProt O14804); assay: RLU of TAAR5 at 1.0 µM in the […] PRESTO-Tango GPCRome screen
[29] = target: 5-hydroxytryptamine receptor 6 (Homo sapiens) (UniProt P50406); assay: RLU of HTR6 at 1.0 µM in the […] PRESTO-Tango GPCRome screen
[30] = target: Probable G-protein coupled receptor 45 (Homo sapiens) (UniProt Q9Y5Y3); assay: RLU of GPR45 at 1.0 µM in the […] PRESTO-Tango GPCRome screen
Sequence of Probable G-protein coupled receptor 45 (Homo sapiens) (Q9Y5Y3 whole entry): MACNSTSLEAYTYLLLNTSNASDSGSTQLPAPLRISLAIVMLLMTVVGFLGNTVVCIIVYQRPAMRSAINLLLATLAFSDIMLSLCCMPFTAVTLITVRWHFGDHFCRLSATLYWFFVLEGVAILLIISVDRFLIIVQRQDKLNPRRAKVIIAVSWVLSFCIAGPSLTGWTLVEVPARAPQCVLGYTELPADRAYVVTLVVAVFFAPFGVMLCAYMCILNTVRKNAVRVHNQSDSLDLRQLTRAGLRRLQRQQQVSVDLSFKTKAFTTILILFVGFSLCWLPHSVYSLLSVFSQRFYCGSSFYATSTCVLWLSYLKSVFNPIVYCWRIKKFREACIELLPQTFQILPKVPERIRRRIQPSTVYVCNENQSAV

[31] = target: Adenosine receptor A3 (Homo sapiens) (UniProt P0DMS8); assay: RLU of ADORA3 at 1.0 µM in the […] PRESTO-Tango GPCRome screen
[32] = target: Motilin receptor (Homo sapiens) (UniProt O43193); assay: RLU of MLNR at 1.0 µM in the […] PRESTO-Tango GPCRome screen
[33] = target: G-protein coupled receptor 6 (Homo sapiens) (UniProt P46095); assay: RLU of GPR6 at 1.0 µM in the […] PRESTO-Tango GPCRome screen
[34] = target: 5-hydroxytryptamine receptor 7 (Homo sapiens) (UniProt P34969); assay: RLU of HTR7 at 1.0 µM in the […] PRESTO-Tango GPCRome screen
[35] = target: P2Y purinoceptor 14 (Homo sapiens) (UniProt Q15391); assay: RLU of P2RY14 at 1.0 µM in the […] PRESTO-Tango GPCRome screen
[36] = target: G-protein coupled receptor 68 (Homo sapiens) (UniProt Q15743); assay: RLU of GPR68 at 1.0 µM in the […] PRESTO-Tango GPCRome screen

RLU [1]: 634
RLU [2]: -793
RLU [3]: 598
RLU [4]: -1360
RLU [5]: 17900
RLU [6]: 463
RLU [7]: -60.1
RLU [8]: 3560
RLU [9]: -4720
RLU [10]: 280
RLU [11]: -82.4
RLU [12]: -5970
RLU [13]: -270
RLU [14]: 2040
RLU [15]: -2040
RLU [16]: 2710
RLU [17]: 3970
RLU [18]: -102
RLU [19]: -473
RLU [20]: 4170
RLU [21]: 2250
RLU [22]: 6410
RLU [23]: -2780
RLU [24]: 375
RLU [25]: -212
RLU [26]: -2940
RLU [27]: 162
RLU [28]: 821
RLU [29]: 5340
RLU [30]: 963
RLU [31]: 506
RLU [32]: -570
RLU [33]: 1.07e+06
RLU [34]: -1000
RLU [35]: -5260
RLU [36]: -1790
Structure (SMILES): CCCCC(=O)N1CC2(C1)CN(c1ccccc1-c1nnn[nH]1)C2
